“And” between values parts separate entries of the source, which are not always exact repeats. Equal entries are not always repeated.
Experiments:
[1] = tested on: SK-HEP-1 cells; experiment: Protection of endothelial cells from homocysteine-induced cell death (MTS assay); type: cell-based, human
[2] = tested on: SK-HEP-1 cells; experiment: Protection of endothelial cells from H2O2-induced cell death (MTS assay); type: cell-based, human; design: key to Cell viability (MTS assay): cell viability as % survival; settings: for Cell viability (MTS assay): SK-HEP-1, n = 6 replicates
Description: The effect of increasing concentrations of NACCbl and GSCbl to protect endothelial cells from the effect of H2O2 was assessed. […] Cell viability was determined by MTS® assay. […] FIG. 3 illustrates that NACCbl and GSCbl protect endothelial cells from the effect of H2O2. […] Cell viability was determined by MTS® assay. […] There was no difference between the protection afforded by NACCbl and that by GSCbl. Both required 100 μM to achieve >80% survival.

[3] = tested on: SK-HEP-1 cells; experiment: Protection from homocysteine-induced apoptosis, Caspase-3 activity (apoptosis assay); type: cell-based, human; settings: 30 μM two hours, then 30 μM homocysteine two hours
Description: Caspase 3 is activated when cells undergo apoptosis. Caspase-3 assay is a standard for apoptosis assay. Homocysteine is a known inducer of apoptosis. Cells were cultured in 96-well plates for 24 hours and then treated with reagents under test conditions. Cytotoxic agents, H2O2 and etoposide were added to negative control wells. The assay was performed according to the manufacturer's protocol, as follows: Cells were re-suspended in 100 μl of clear media and 50 μl of Caspase-3 substrate solution was immediately added to each test well. […] Cell viability was determined by MTS® assay. […] Cell viability was determined by MTS® assay.

[4] = tested on: Hsp32; experiment: Hsp32 gene expression (RT-PCR, densitometry); type: cell-based, human; settings: SK-HEP-1; Sn (IX) protoporphyrin 25 μM; Quercitin 15 μM
Description: Cells were plated into 6-, 12-, or 24-well cell culture clusters, at 2×10^3, 2×10^5, or 1×10^5 cells per well and incubated until 90% confluent. Treatments were applied as above.
Following incubation, cells were subjected to mRNA extraction followed by cDNA synthesis for each sample under test. Polymerase chain reaction cDNA templates were prepared for simplex PCR protocol. PCR products were then visualized using a UV Transilluminator and images captured using a Kodak ID gel imaging system. Densitometry and statistical analysis was then performed on each gene expression band image using PSP® v 10.0 running under Windows XP®.
mRNA extraction was performed using the Quickprep micro mRNA Purification Kit. Following incubation of cells post-treatment, the media was removed from the cells, adherent cells were re-suspended in 0.4 ml extraction buffer and 0.8 ml elution buffer at 65° C. was added.
A reaction mixture was prepared in individual microcentrifuge tubes containing 2 cDNA synthesis beads, 32 μl of the mRNA solution and 1 μl of pd(N)6. This mixture was incubated at 37° C. in a water bath for 60 minutes. After incubation, 27 μl of RNase-free DEPC treated water was added to each tube to make a total volume 60 μl. cDNA samples were prepared in duplicate. Sample 1 was used immediately in RT-PCR protocol. Sample 2 was prepared for qPCR protocol by the addition of 150 μl of 95% ice-cold ethanol and stored at −20° C.
Microcentrifuge tubes from puReTaq™Ready-To-Go™ PCR Beads containing one PCR bead were labeled for each sample required. Added to the PCR bead were 17 μl of RNase-free DEPC treated water, 1 μl sense primer, 1 μl anti-sense primer and 5 μl of the cDNA solution. RT-PCR conditions were as follows: Hsp70 and β-actin, pre-treatment step, 94° C. for 1 minute, followed by denaturing at 92° C. for 1 minute, annealing at 60° C. for 1 minute and extension at 72° C. for 1 minute. Total cycles, 30, post-treatment was then carried out at 72° C. for 10 minutes. For Hsp32, pre-treatment step, 95° C. for 2 minutes, followed by denaturing at 94° C. for 30 seconds, annealing at 58° C. for 1 minute and extension at 72° C. for 1 minute. Total cycles 45, post treatment was then carried out at 72° C. for 10 minutes. Following RT-PCR, samples were stored at −20° C.
Gels were visualised on a UV Transilluminator. Photographs were stored using a Kodak Digital camera system fitted with a UV filter set connected to a PC. Images were then transferred to the Kodak ID gel imaging system. Densitometry was performed on each gene expression band using PSP™ v10 running under Windows XP®.
Experiments were conducted using Hsp32 and Hsp 70 gene expression as the basis for study. […] The densitometric data are presented as means ±SEM of n=3 separate experiments. *p<0.05 or **p<0.01, treatment vs. control.

[5] = tested on: SK-HEP-1 cells; experiment: Effect of high concentrations of NACCbl and GSCbl on SK-HEP-1 cells (MTS assay, 24 hours); type: cell-based, human; settings: for Cell viability by MTS assay (FIG. 13): SK-HEP-1, 3 replicates
[6] = tested on: U937 (monocytes); experiment: Survival of U937 cells at variable concentration of Hcy; type: cell-based; settings: NACCbl 30 μM, NAC 75 μM, CNCbl 15 μM, folate 30 μM
Description: (§1) Additional cell studies were conducted using Jurkat (T-cells) and U937 (monocyte) cell lines. These experiments confirmed that other cell types are killed by homocysteine, although these cell lines are not as sensitive as the SK-HEP-1 cell line discussed in the experiments above and are thus more resistant to homocysteine. Cells were exposed to NACCbl 30 μM, NAC 75 μM, CNCbl 15 μM, and folate 30 μM. […] In these Figures, the monocytes are N=6 and concentrations are as follows: NACCbl 30 μM, NAC 75 μM, CNCbl 15 μM, Folate 30 μM

[7] = tested on: Jurkat (T-cells); experiment: Survival of Jurkat cells at variable concentration of Hcy; type: cell-based; settings: NACCbl 30 μM, NAC 75 μM, CNCbl 15 μM, folate 30 μM
Description: as §1

[8] = tested on: SK-HEP-1 cells; experiment: NACCbl protection from homocysteine with inhibition of Hsp32/Hsp70 by Sn(IX) protoporphyrin, quercitin or siRNA (MTS assay)
[9] = 2 hours, then 25 μM H2O2 24 hours

CC(=O)NC(C[S-])C(=O)O.CC1=C2N=C(C=C3N=C(C(C)=C4[N-]C(C(CC(N)=O)C4(C)CCC(=O)NCC(C)OP(=O)([O-])OC4C(CO)OC(n5cnc6cc(C)c(C)cc65)C4O)C4(C)N=C1C(CCC(N)=O)C4(C)CC(N)=O)C(CCC(N)=O)C3(C)C)C(CCC(N)=O)C2(C)CC(N)=O.[Co+3] [NACCbl, N-acetyl-L-cysteinylcobalamin]
Protection compared with GSCbl ([1]; concentrations below 12.5 μM, 30 μM homocysteine, p<0.001): significantly greater than that provided by GSCbl
Protection from homocysteine-induced cell death ([1]; pre-incubation 30 μM two hours, variable homocysteine two hours): protected cells from homocysteine-induced cell death
Survival ([1]; ≧12.5 μM NACCbl, then 30 μM homocysteine 24 hours): 80%
Difference between protection by NACCbl and by GSCbl ([2]; 25 μM H2O2 24 hours): no difference
Concentration required to achieve >80% survival [2, 9]: 100 µM
Preincubation concentration that protected cells from H2O2-induced cell death [2, 9]: ≥ 2.0 µM
Cell viability (MTS assay) ([2]; compound 30 μM two hours, then H2O2 200 μM a further two hours): 5.2108 and 7.153 and 1.99 and 0.6632
Cell viability (MTS assay) ([2]; compound concentration 6.25, 2 hours, then 25 μM H2O2 24 hours): 42.8195 and 42.09 and 39.39 and 30.9 and 28 and 38.4058
Cell viability (MTS assay) ([2]; compound concentration 12.5, 2 hours, then 25 μM H2O2 24 hours): 45.26 and 41.7 and 44.99 and 45.5863 and 42.23 and 47.36
Cell viability (MTS assay) ([2]; compound concentration 25, 2 hours, then 25 μM H2O2 24 hours): 46.9 and 46.77 and 45.26 and 42.69 and 45.72 and 48.16
Cell viability (MTS assay) ([2]; compound concentration 100, 2 hours, then 25 μM H2O2 24 hours): 61.5942 and 56.59 and 70.22 and 74.37 and 64.23 and 61.79
Cell viability (MTS assay) ([2]; compound concentration 200, 2 hours, then 25 μM H2O2 24 hours): 100.7246 and 99.7365 and 101.8445 and 107.3123 and 92.69 and 97.56
Protection against apoptosis induced by homocysteine [3]: total protection
Hsp32 gene expression [4]: induced
Survival ([5]; SK-HEP-1, 10 mM, 24 hours): over 60%
Cell viability by MTS assay (FIG. 13) ([5]; compound conc. 0.61, 24 hours): 2.572 and 2.498 and 2.473
Cell viability by MTS assay (FIG. 13) ([5]; compound conc. 1.22, 24 hours): 2.546 and 2.524 and 2.538
Cell viability by MTS assay (FIG. 13) ([5]; compound conc. 2.441, 24 hours): 2.592 and 2.536 and 2.499
Cell viability by MTS assay (FIG. 13) ([5]; compound conc. 4.882, 24 hours): 2.532 and 2.463 and 2.457
Cell viability by MTS assay (FIG. 13) ([5]; compound conc. 9.765, 24 hours): 2.505 and 2.474 and 2.514
Cell viability by MTS assay (FIG. 13) ([5]; compound conc. 19.531, 24 hours): 2.485 and 2.466 and 2.502
Cell viability by MTS assay (FIG. 13) ([5]; compound conc. 39.062, 24 hours): 2.503 and 2.474 and 2.453
Cell viability by MTS assay (FIG. 13) ([5]; compound conc. 78.125, 24 hours): 2.521 and 2.488 and 2.475
Cell viability by MTS assay (FIG. 13) ([5]; compound conc. 156.25, 24 hours): 2.484 and 2.42 and 2.492
Cell viability by MTS assay (FIG. 13) ([5]; compound conc. 312.5, 24 hours): 2.409 and 2.301 and 2.437
Cell viability by MTS assay (FIG. 13) ([5]; compound conc. 625, 24 hours): 2.358 and 2.242 and 2.347
Cell viability by MTS assay (FIG. 13) ([5]; compound conc. 1250, 24 hours): 2.2 and 2.055 and 2.3
Cell viability by MTS assay (FIG. 13) ([5]; compound conc. 2500, 24 hours): 1.989 and 1.891 and 2.085
Cell viability by MTS assay (FIG. 13) ([5]; compound conc. 5000, 24 hours): 2.081 and 2.003 and 2.004
Cell viability by MTS assay (FIG. 13) ([5]; compound conc. 10000, 24 hours): 1.908 and 1.82 and 1.732
Protection of U937 cells from death [6]: more effective at protecting these cells from death than NAC, CN Cbl or folate
Protection of Jurkat cells from death [7]: more effective at protecting these cells from death than NAC, CN Cbl or folate
Cell viability by MTS assay (FIG. 11), replicates 1-6 ([8]; SK-HEP-1, NACCbl 30 μM two hours with or without Sn(IX)PP/quercetin, then Hcy conc. 200 two hours, label Hcy = Hcy alone): 1.378 and 1.167 and 1.33 and 1.456 and 1.491 and 1.537
Reduction of the protection by NACCbl on inhibition of Hsp32 ([8]; Sn(IX) protoporphyrin or siRNA, p<0.001): 10-20%
Cell viability by MTS assay (FIG. 11), replicates 1-6 ([8]; as E45, Hcy conc. 0): 2.885 and 2.698 and 2.821 and 2.771 and 2.691 and 2.7
Cell viability by MTS assay (FIG. 11), replicates 1-6 ([8]; as E45, Hcy conc. 1.78): 2.647 and 2.551 and 2.789 and 2.89 and 2.549 and 2.611
Cell viability by MTS assay (FIG. 11), replicates 1-6 ([8]; as E45, Hcy conc. 3.125): 2.453 and 2.338 and 2.36 and 2.317 and 2.418 and 2.535
Cell viability by MTS assay (FIG. 11), replicates 1-6 ([8]; as E45, Hcy conc. 6.25): 2.41 and 2.4 and 2.322 and 2.201 and 2.115 and 2.187
Cell viability by MTS assay (FIG. 11), replicates 1-6 ([8]; as E45, Hcy conc. 12.5): 2.21 and 2.11 and 2.045 and 2.065 and 2.101 and 2.324
Cell viability by MTS assay (FIG. 11), replicates 1-6 ([8]; as E45, Hcy conc. 25): 2.1 and 2.19 and 1.879 and 1.937 and 1.779 and 1.837
Cell viability by MTS assay (FIG. 11), replicates 1-6 ([8]; as E45, Hcy conc. 50): 1.678 and 1.832 and 1.881 and 1.73 and 1.74 and 1.855
Cell viability by MTS assay (FIG. 11), replicates 1-6 ([8]; as E45, Hcy conc. 100): 1.678 and 1.592 and 1.694 and 1.773 and 1.732 and 1.639
Protection by NACCbl on inhibition of both Hsp32 and Hsp70 together ([8]; chemically and directly): totally removed protection
Reduction of the protection by NACCbl on inhibition of Hsp70 ([8]; quercitin or siRNA, p<0.001): 20-40%

From patent publication US20080113900A1, “Pharmaceutical compositions and therapeutic applications for the use of a synthetic vitamin B12 derivative, glutathionylcobalamin” (priority 2006, published 2008)
